In publication PMC2409906, “Establishment and characterisation of a human carcinoma cell line with acquired resistance to Aplidin™” (British Journal of Cancer, 2004):
Starred links: 1 amine or outer side, 2 acyl side, 3 side chain; linkers in the order of their positions; H or OH if unused. Positions of bridges follow the written chain, without caps; N, C: chain ends. Non-standard residues stand in square brackets, D forms with d. Residues, ends and D or L forms follow the SMILES beside them. *: point of attachment. X1 = CC[C@H](C)[C@@H](N[*:1])[C@@H](O)CC(=O)O[C@H](C(=O)[C@H](C)C(=O)[*:2])C(C)C; X3 = CC[C@H](C)[C@@H](N[*:1])[C@@H](O)CC(=O)[*:2]; X2 = CN(C)c1ccc2c(CC(=O)*)cc(=O)oc2c1; NMeY = CN[C@@H](Cc1ccc(O)cc1)C(=O)O; dNMeL = CN[C@H](CC(C)C)C(=O)O; Hiv = CC(C)[C@H](O)C(=O)O; Pyruvoyl = CC(=O)C(=O)*; Lac = C[C@H](O)C(=O)O

Experiments:
human leukaemia samples = conditions: ref Bresters et al, 2003; cited from earlier work
HeLa-APL cells = assay: Sulphorhodamine B (SRB) growth inhibition assay, resistant subline; assay type: cell-based, human; conditions: HeLa-APL vs HeLa wt; for crossresistance of HeLa-APL cells (IC50 values, SRB cell growth assay): 48 or 72 h exposure; for crossresistance of HeLa-APL cells: data not shown
Method: HeLa, HeLa-APL, LoVo and LoVo-dox ([Grandi et al, 1986]) cells were maintained in DMEM supplemented with 10% FCS and 100 U ml^−1 penicillin and streptomycin at 37°C and 5% CO2.
Cells were washed twice with PBS, fixed for 15 min in 1% glutaraldehyde solution, rinsed twice in PBS, and stained in 0.4% SRB solution for 30 min at room temperature. Cells were then rinsed several times with 1% acetic acid solution and air-dried. Sulphorhodamine B was then extracted in 10 mM trizma base solution and the absorbance measured at 490 nm. Cell survival was expressed as percentage of control cell growth.

[1] = test system: HeLa wt and HeLa-APL cells; assay: Detection of drug in cell extracts by Maldi-TOF mass spectrometry; assay type: in vitro ADME, human; conditions: 450 nM, 1 h exposure, methanol cell extracts, Maldi-TOF MS, parental and HeLa-APL cells
Method: To detect minute amounts of APL present in the cellular extracts, Matrix-Assisted Laser Desorption/Ionisation-Time Of Flight Mass Spectrometry (Maldi-TOF MS) technique was used. Cell cultures were treated with vehicle or APL at the concentrations and times indicated in the text, washed with PBS and harvested by centrifugation at 6000 r.p.m. for 5 min at 4°C. Cell pellets were washed with PBS and extracted with cold methanol. Equal amounts of extract were applied on a template, air dried, mixed with 0.2–0.5 μl matrix (10 mg ml^−1 dihydroxy benzoic acid in water :acetonitrile mix, 1% trifluoroacetic acid) and air dried. Analyses were performed on a Voyager DE Pro (PerSeptive Biosystems, Framingham, MS, USA). Mass spectra were averaged over 100–200 laser shots from a nitrogen laser (337 nm) operating in a linear mode. Ionised molecules were accelerated with a voltage of 20 kV. The following peptides were used as external markers: intact human insulin, human insulin alpha-chain, human insulin beta-chain and cytochrome c.

[2] = test system: HeLa wt and HeLa-APL cells; assay: Intracellular accumulation of fluorescent APL-dmac (fluorescence microscopy); assay type: in vitro ADME, human
Method: (§1) Cells were stained with APL-dmac, Calcein-AM or Hoechst-33342 by direct addition of the fluorescent compounds in the cell culture dishes, incubated at 37°C for the times indicated, washed in PBS and examined by fluorescence microscopy.

[3] = design: method as in Vervoort and Fenical, 2000; Joullie et al, 2003; conditions: ref Vervoort and Fenical, 2000; Joullie et al, 2003; cited from earlier work
Pgp170 in LoVo-Dox cells = biological target: T1, Pgp170 in LoVo-Dox cells (Homo sapiens, UniProt P08183); assay: Calcein-AM accumulation in LoVo-Dox cells (fluorescence microscopy); assay type: cell-based; conditions: 50 μM verapamil, Calcein-AM loaded for 1 h
T1 construct: endogenous in cells; host or cells: LoVo-Dox (doxorubicin-selected LoVo colorectal carcinoma cells)
T1 sequence (P08183 whole entry): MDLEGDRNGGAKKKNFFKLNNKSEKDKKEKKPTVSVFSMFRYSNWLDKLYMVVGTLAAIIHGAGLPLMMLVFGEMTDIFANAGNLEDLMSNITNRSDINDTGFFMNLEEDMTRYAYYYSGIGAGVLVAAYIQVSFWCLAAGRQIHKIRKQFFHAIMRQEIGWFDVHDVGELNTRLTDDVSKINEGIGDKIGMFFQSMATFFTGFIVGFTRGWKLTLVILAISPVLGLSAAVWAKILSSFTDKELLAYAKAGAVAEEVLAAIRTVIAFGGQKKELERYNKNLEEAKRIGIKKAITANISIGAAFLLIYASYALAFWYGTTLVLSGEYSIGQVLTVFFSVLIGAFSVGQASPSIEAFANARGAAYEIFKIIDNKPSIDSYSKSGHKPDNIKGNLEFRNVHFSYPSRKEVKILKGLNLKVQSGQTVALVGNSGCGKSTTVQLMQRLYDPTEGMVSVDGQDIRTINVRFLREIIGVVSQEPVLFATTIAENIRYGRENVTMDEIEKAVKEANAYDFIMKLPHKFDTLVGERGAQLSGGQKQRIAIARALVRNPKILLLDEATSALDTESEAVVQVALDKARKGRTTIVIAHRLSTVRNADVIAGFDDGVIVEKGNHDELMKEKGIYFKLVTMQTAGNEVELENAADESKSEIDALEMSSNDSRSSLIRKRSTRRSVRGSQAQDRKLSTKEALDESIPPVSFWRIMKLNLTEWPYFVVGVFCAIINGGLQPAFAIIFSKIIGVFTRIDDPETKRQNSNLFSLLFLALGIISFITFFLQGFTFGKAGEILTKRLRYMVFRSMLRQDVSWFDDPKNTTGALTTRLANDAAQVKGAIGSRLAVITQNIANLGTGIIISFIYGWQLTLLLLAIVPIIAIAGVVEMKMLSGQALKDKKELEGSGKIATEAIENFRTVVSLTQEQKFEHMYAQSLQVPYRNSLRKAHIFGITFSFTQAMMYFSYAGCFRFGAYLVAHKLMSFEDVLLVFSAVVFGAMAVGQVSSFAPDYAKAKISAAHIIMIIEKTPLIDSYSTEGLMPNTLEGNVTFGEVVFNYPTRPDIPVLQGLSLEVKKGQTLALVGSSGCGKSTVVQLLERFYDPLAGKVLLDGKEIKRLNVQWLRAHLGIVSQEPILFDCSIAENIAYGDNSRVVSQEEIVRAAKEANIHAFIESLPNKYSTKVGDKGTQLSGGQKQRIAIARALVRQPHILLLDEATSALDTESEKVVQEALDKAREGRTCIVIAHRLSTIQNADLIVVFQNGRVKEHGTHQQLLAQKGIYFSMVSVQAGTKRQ
Method: as §1

## Nc1ccn([C@@H]2O[C@H](CO)[C@@H](O)C2(F)F)c(=O)n1 [2′,2′-difluorodeoxycytidine]
Human leukaemia samples
  crossresistance with APL: trend for crossresistance

## Nc1ncn([C@@H]2O[C@H](CO)[C@@H](O)[C@H]2O)c(=O)n1 [5-azacytidine]
HeLa-APL cells; triplicate plates
  crossresistance of HeLa-APL cells (IC50 values, SRB cell growth assay): no significant crossresistance

## Sc1ncnc2nc[nH]c12 [6-mercaptopurine]
HeLa-APL cells; triplicate plates
  crossresistance of HeLa-APL cells (IC50 values, SRB cell growth assay): no significant crossresistance

## Nc1nc2nc[nH]c2c(=S)[nH]1 [6-thioguanine]
HeLa-APL cells; triplicate plates
  crossresistance of HeLa-APL cells (IC50 values, SRB cell growth assay): no significant crossresistance

## CC[C@H](C)[C@H]1NC(=O)[C@@H](NC(=O)[C@@H](CC(C)C)N(C)C(=O)[C@@H]2CCCN2C(=O)C(C)=O)[C@@H](C)OC(=O)[C@H](Cc2ccc(OC)cc2)N(C)C(=O)[C@@H]2CCCN2C(=O)[C@H](CC(C)C)NC(=O)[C@@H](C)C(=O)[C@H](C(C)C)OC(=O)C[C@@H]1O [APL, Aplidin™] (Pyruvoyl-P[dNMeL]T[X1]LP[NMeY](Me); ester 3-C)
[1]
  presence of the intact drug in cells: confirmed

## CC[C@H](C)[C@H]1NC(=O)[C@@H](NC(=O)[C@@H](CC(C)C)N(C)C(=O)Cc2cc(=O)oc3cc(N(C)C)ccc23)[C@@H](C)OC(=O)[C@H](Cc2ccc(OC)cc2)N(C)C(=O)[C@@H]2CCCN2C(=O)[C@H](CC(C)C)NC(=O)[C@@H](C)C(=O)[C@H](C(C)C)OC(=O)C[C@@H]1O [APL-dmac, aplidin-dimethylaminocoumarin] (X2-[dNMeL]T[X1]LP[NMeY](Me); ester 2-C)
[2]; 450 nM APL-dmac, 1 h, 37°C, HeLa wt and HeLa-APL
  internalisation and accumulation in the cytoplasmic compartment: consistent in both cell systems
[2]; not shown
  internalisation after long-term treatment: remained internalised
[1]
  presence of the intact drug in cells: detected in both cell lines

## COc1cc(NS(C)(=O)=O)ccc1Nc1c2ccccc2nc2ccccc12 [amsacrine]
HeLa-APL cells
  crossresistance of HeLa-APL cells: no significant crossresistance

## CC[C@@]1(O)C(=O)OCc2c1cc1n(c2=O)Cc2cc3ccccc3nc2-1 [camptothecin]
HeLa-APL cells; triplicate plates
  crossresistance of HeLa-APL cells (IC50 values, SRB cell growth assay): no significant crossresistance

## O=C(O)CCCc1ccc(N(CCCl)CCCl)cc1 [chlorambucil]
HeLa-APL cells
  crossresistance of HeLa-APL cells: no significant crossresistance

## N.N.[Cl][Pt][Cl] [cisplatin]
HeLa-APL cells; triplicate plates
  crossresistance of HeLa-APL cells (IC50 values, SRB cell growth assay): no significant crossresistance

## COc1cccc2c1C(=O)c1c(O)c3c(c(O)c1C2=O)C[C@@](O)(C(=O)CO)C[C@@H]3O[C@H]1C[C@H](N)[C@H](O)[C@H](C)O1 [doxorubicin]
HeLa-APL cells; triplicate plates
  crossresistance of HeLa-APL cells (IC50 values, SRB cell growth assay): no significant crossresistance

## COc1cc([C@@H]2c3cc4c(cc3[C@@H](O[C@@H]3O[C@@H]5CO[C@@H](C)O[C@H]5[C@H](O)[C@H]3O)[C@H]3COC(=O)[C@H]23)OCO4)cc(OC)c1O [etoposide]
HeLa-APL cells; triplicate plates
  crossresistance of HeLa-APL cells (IC50 values, SRB cell growth assay): no significant crossresistance

## Nc1nc(F)nc2c1ncn2[C@@H]1O[C@H](CO)[C@@H](O)[C@@H]1O [fludarabine]
HeLa-APL cells; triplicate plates
  crossresistance of HeLa-APL cells (IC50 values, SRB cell growth assay): no significant crossresistance

## N[C@@H](Cc1ccc(N(CCCl)CCCl)cc1)C(=O)O [melphalan]
HeLa-APL cells
  crossresistance of HeLa-APL cells: no significant crossresistance

## O=C1c2c(O)ccc(O)c2C(=O)c2c(NCCNCCO)ccc(NCCNCCO)c21 [mitoxantrone]
HeLa-APL cells
  crossresistance of HeLa-APL cells: no significant crossresistance

## CC(=O)O[C@H]1C(=O)[C@@]2(C)[C@H]([C@H](OC(=O)c3ccccc3)[C@]3(O)C[C@H](OC(=O)[C@H](O)[C@@H](NC(=O)c4ccccc4)c4ccccc4)C(C)=C1C3(C)C)[C@]1(OC(C)=O)CO[C@@H]1C[C@@H]2O [paclitaxel]
HeLa-APL cells; triplicate plates
  crossresistance of HeLa-APL cells (IC50 values, SRB cell growth assay): no significant crossresistance

## CC[C@H](C)[C@H]1NC(=O)[C@@H](NC(=O)[C@@H](CC(C)C)N(C)C(=O)[C@@H]2CCCN2C(=O)[C@H](C)O)[C@@H](C)OC(=O)[C@H](Cc2ccc(OC)cc2)N(C)C(=O)[C@@H]2CCCN2C(=O)[C@H](CC(C)C)NC(=O)[C@H](C(C)C)OC(=O)C[C@@H]1O [tamandarin A] (H-[Lac]P[dNMeL]T[X3][Hiv]LP[NMeY](Me); ester 4-C)
[3]
  cytotoxic activity relative to APL: comparable to that of APL

## COc1ccc(CCN(C)CCCC(C#N)(c2ccc(OC)c(OC)c2)C(C)C)cc1OC (centres unmarked) [verapamil]
Pgp170 in LoVo-Dox cells
  effect of pre-incubation on calcein-AM accumulation: accumulation of calcein-AM in LoVo-Dox-resistant cells to an extent similar to that observed in sensitive LoVo cells

## CC[C@]1(O)C[C@@H]2CN(CCc3c([nH]c4ccccc34)[C@@](C(=O)OC)(c3cc4c(cc3OC)N(C)[C@H]3[C@@](O)(C(=O)OC)[C@H](OC(C)=O)[C@]5(CC)C=CCN6CC[C@]43[C@@H]65)C2)C1 [vinblastine]
HeLa-APL cells; triplicate plates
  crossresistance of HeLa-APL cells (IC50 values, SRB cell growth assay): no significant crossresistance

## didemnin B
HeLa-APL cells; 48 h exposure, SRB assay, triplicate plates
  crossresistance of HeLa-APL cells to APL structural analogues: comparable crossresistance
[3]
  cytotoxic activity relative to APL: comparable to that of APL
